Experimental findings from patent US7429659B2, “Furan compounds as histamine H3 modulators” (Janssen Pharmaceutica N.V., priority 2004, dated 2008) are described below.

Counter-ions that a name gives are not always drawn.

The target of the assay is T1, human histamine H3 receptor (Homo sapiens, UniProt Q9Y5N1).
T1 construct: One μg supercoiled H3 receptor cDNA was added to the cells; expressed in transfected cells; membranes prepared from cell pellets
The experiment in a line: [3H]-N-Methylhistamine binding to membranes of histamine H3 receptor-expressing SK-N-MC cells. As to conditions: 0.8 nM [3H]-N-methylhistamine, 60 min at 25° C., SK-N-MC cell membranes; Ki=(IC50)/(1+([L]/(KD)). Here is the method:
Cells were grown to about 70% to 80% confluence and removed from the plate with trypsin and pelleted in a clinical centrifuge. […] One μg supercoiled H3 receptor cDNA was added to the cells and mixed gently. […] Colonies that survived selection were grown and tested. SK-N-MC cells were used because they give efficient coupling for inhibition of adenylate cyclase. The clones that gave the most robust inhibition of adenylate cyclase in response to histamine were used for further study.
Supernatants from an 800 g spin were collected and were recentrifuged at 30,000 g for 30 min. Pellets were re-homogenized in 50 mM Tris/5 mM EDTA (pH 7.4). Membranes were incubated with 0.8 nM [^3H]-N-methylhistamine plus/minus test compounds for 60 min at 25° C. and were harvested by rapid filtration over GF/C glass fiber filters (pretreated with 0.3% polyethylenimine) followed by four washes with buffer. Filters were added to 5 mL of scintillation cocktail, and the signal was then counted on a liquid scintillation counter.

T1 sequence (Q9Y5N1 whole entry): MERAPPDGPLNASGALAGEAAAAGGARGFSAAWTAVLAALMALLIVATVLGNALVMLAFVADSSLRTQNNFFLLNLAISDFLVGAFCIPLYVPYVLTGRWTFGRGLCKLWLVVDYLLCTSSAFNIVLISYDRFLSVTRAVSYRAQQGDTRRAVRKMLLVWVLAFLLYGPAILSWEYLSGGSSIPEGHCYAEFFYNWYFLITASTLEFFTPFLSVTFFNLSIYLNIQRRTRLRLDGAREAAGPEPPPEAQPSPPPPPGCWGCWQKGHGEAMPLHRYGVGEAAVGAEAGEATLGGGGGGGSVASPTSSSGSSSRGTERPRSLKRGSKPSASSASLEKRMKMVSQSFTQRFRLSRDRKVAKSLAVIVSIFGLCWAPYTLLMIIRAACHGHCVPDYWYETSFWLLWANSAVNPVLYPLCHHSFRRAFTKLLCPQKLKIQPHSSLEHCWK

For the compound `CC(C)N1CCN(C(=O)c2ccc(CN3CCC(F)CC3)o2)CC1` [Example 19, [5-(4-Fluoro-piperidin-1-ylmethyl)-furan-2-yl]-(4-isopropyl-piperazin-1-yl)-methanone, fumarate salt], the Ki (as a rule, a dissociation constant, usually derived from enzyme kinetics or from competition with a known ligand) is 64 nM.
